Data: patent US20130177546A1, “METHOD FOR ENHANCING EFFICACY AND SELECTIVITY OF CANCER CELL KILLING BY DNA DAMAGING AGENTS” (MAINE INSTITUTE FOR HUMAN GENETICS AND HEALTH, priority 2011, published 2013)

Columns and labels:
Format in all cases: cell-based
[1] = tested on: SK-Br-3 (p53-mutant) cells; assay: Clonogenic survival assay after DNA damage, SK-Br-3 cells expressing Arm1 or control shRNA; conditions: for survival: 0.5 mM DOX; for cells surviving: 0.0025% MMS
Experimental: (§1) MCF7 and SK-Br-3 cells were obtained from ATCC and maintained in DMEM or McCoys 5A supplemented with 10% FBS and antibiotics at 37° C., 5% CO2. A human Flag-tagged Arm1, Rev1, and p21 expression construct (Origene) were transiently transfected into SK-Br-3 cells with Fugene 6 (Roche) and extracts generated after 24 h. Lentiviral shRNA particles were obtained from Open Biosystems and stably expressing clones selected with puromycin and confirmed by GFP expression and Q-PCR (FIG. 10). […] Surviving colonies were stained with methylene blue and counted 2 weeks after treatments.
(§2) The results from this example are shown in FIG. 3. a, Arm1 promotes PCNA methyl esterification following DNA damage. PCNA was analyzed by 2D-PAGE immunoblotting in SK-Br-3 and MCF7 cells expressing Arm1 or non-targeting (control) shRNA in the absence of DNA damage or 4 h following Dox treatment or UV irradiation. b, PCNA-dependent methyltransferase activities are alter in shRNA expressing SK-Br-3 and MCF7 cells. WCE were assayed for PCNA-dependent carboxyl methyltransferase activity in the presence of His-PCNA ([…]) and average activities shown (±S.E.M.). Significance was determined using a two-tailed t-test. c, DNA damage sensitivity in Arm1 knockdown cells is related to p53 status. MCF7 (p53 wild-type) and SK-Br-3 (p53-mutant) cells were exposed to increasing levels of Dox and UV and survival determined by clonogenic survival. Average results from three independent experiments are presented ±SD. d, Arm1 knockdown promotes DNA repair. DNA repair rates were determined in shRNA expressing SK-Br-3 and MCF7 cells using host cell reactivation assay. Cells were transfected with UV-irradiated reporter plasmids and average repair rates were determined after 24 h. Average results from independent experiments are presented (±S.E.M.). Significance was determined with a two-tailed t-test.
In addition to PCNA modification in knock-down cells, we examined cell survival following DNA damage (FIG. 4b). […] In MCF7 cells with knocked-down Arm1 expression 47% of cells survived 0.5 mM DOX compared to 15% survival in the control cells (FIG. 4b). Similar results were consistently observed in response to UV with 39% of the Arm1 knock-down cells surviving 25 J/m^2 compared to 19% in the control. […] Additionally, because ˜50% of tumours harbour p53 mutations and knock-down of Arm1 expression in p53-mutant breast tumours appeared to sensitize the cells to DNA damage, inhibition of Arm1 may ultimately allow us to more effectively target tumour cells.

p21^WAF1/CIP1 = assay: p21 expression in Dox-treated MCF7 cells (SDS-PAGE, immunoblot); conditions: MCF7 cells following Dox treatment
Experimental: The results from this example are shown in FIG. 2. a, Doxorubicin (Dox) promotes PCNA methyl esterification in MCF7 cells. Whole cell extracts (WCE) from cultures treated with Dox ([…]) were resolved by 2D-PAGE followed by PCNA immunoblotting (IB). The basic-shifted PCNA isoform (ME-PCNA) is identified with an arrow. b, PCNA-dependent methyltransferase activity is altered following Dox treatment. Dox treated MCF7 WCE were assayed for PCNA-dependent activity in triplicate using the vapour diffusion assay, and average activities are presented ±S.E.M. Significance was determined using a two-tailed t-test. c, Dox induces p21 expression in MCF7 cells. Extracts were separated by SDS-PAGE and immunoblotted for p21^Waf1/Cip1. d, p21 binding promotes PCNA methyl esterification. Untreated MCF7 extracts were incubated with GST, GST-p21 (full-length), and GST-p21(PIP) proteins bound to glutathione Sepharose for 2 h at 4° C. prior to 2D-PAGE and PCNA immunoblotting. e The p21-induced basic shift is a result of PCNA methyl esterification. p21(PIP) peptide was covalently coupled to CH-Sepharose and used to affinity purify PCNA from MCF7 whole cell extracts. Purified fractions were separated by 2D-PAGE and stained with colloidal Coomassie blue. Spots were excised from the gel, digested with trypsin, and analyzed by LC-MS/MS. […]

[2] = tested on: MCF7 (p53 wild-type) cells; assay: Clonogenic survival assay after DNA damage, MCF7 cells expressing Arm1 or control shRNA
Experimental: as §1, §2
In addition to PCNA modification in knock-down cells, we examined cell survival following DNA damage (FIG. 4b). […]

## COc1cccc2c1C(=O)c1c(O)c3c(c(O)c1C2=O)C[C@@](O)(C(=O)CO)C[C@@H]3O[C@H]1C[C@H](N)[C@H](O)[C@H](C)O1 [DOX, doxorubicin]
[1]; SK-Br-3 cells with knock-down of Arm1 expression
  survival: 3%
[1]; SK-Br-3 control cells
  survival: 18%
p21^WAF1/CIP1
  increased expression of p21^WAF1/CIP1: > 27 fold
[2]; MCF7 cells with knocked-down Arm1 expression, 0.5 mM DOX
  cells survived: 47%
[2]; MCF7 control cells, 0.5 mM DOX
  survival: 15%

## COS(C)(=O)=O [MMS]
[1]; SK-Br-3 Arm1 knock-down cells
  cells surviving: 4%
[1]; SK-Br-3 control cells
  cells surviving: 12%
[2]; MCF7 Arm1 knock-down cells, response to MMS
  survival of Arm1 knock-down cells compared to control cells: enhanced survival
